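The concentration for 50% growth inhibition is given as GI50. TGI marks complete inhibition of growth.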
Legend:
Assay in all cases: NCI tumour cell line growth inhibition, 384-well format
NCI-H23 lung = system: NCI-H23 lung
NCI-H322M lung = system: NCI-H322M lung
NCI-H460 NSCLC = system: NCI-H460 NSCLC
NCI-H522 lung = system: NCI-H522 lung
NCI/ADR-RES ovarian = system: NCI/ADR-RES ovarian
OVCAR-3 ovarian = system: OVCAR-3 ovarian
OVCAR-4 ovarian = system: OVCAR-4 ovarian
OVCAR-5 ovarian = system: OVCAR-5 ovarian
OVCAR-8 ovarian = system: OVCAR-8 ovarian
PC-3 prostate = system: PC-3 prostate
RPMI-8226 leukemia = system: RPMI-8226 leukemia
RXF 393 renal = system: RXF 393 renal
SF-268 CNS = system: SF-268 CNS
SF-295 CNS = system: SF-295 CNS
SF-539 CNS = system: SF-539 CNS
SK-MEL-28 melanoma = system: SK-MEL-28 melanoma
SK-MEL-5 melanoma = system: SK-MEL-5 melanoma
SK-OV-3 ovarian = system: SK-OV-3 ovarian
SN12C renal = system: SN12C renal
SNB-19 CNS = system: SNB-19 CNS
SNB-75 CNS = system: SNB-75 CNS
SR leukemia = system: SR leukemia
SW-620 colon = system: SW-620 colon
T-47D breast = system: T-47D breast
TK-10 renal = system: TK-10 renal
U251 glioblastoma = system: U251 glioblastoma
UACC-257 melanoma = system: UACC-257 melanoma
UACC-62 melanoma = system: UACC-62 melanoma
UO-31 renal = system: UO-31 renal

Work on `O=C(Cc1cccc(OC(F)(F)F)c1)Nc1ccc(CCCCc2nnc(NC(=O)Cc3ccccn3)s2)nn1` yielded a TGI (NCI-H23 lung) of 39.6 µM, a GI50 (NCI-H322M lung) of 0.0199 µM and a TGI (NCI-H322M lung) of 0.0551 µM. It also gave a GI50 (NCI-H460 NSCLC) of 0.165 µM, a TGI (NCI-H460 NSCLC) of 19.2 µM and a GI50 (NCI-H522 lung) of 0.075 µM. The TGI (NCI-H522 lung) was 4.05 µM, the GI50 (NCI/ADR-RES ovarian) was > 100 µM and the TGI (NCI/ADR-RES ovarian) was > 100 µM. For the same molecule, the GI50 (OVCAR-3 ovarian) was > 21.4 µM, the TGI (OVCAR-3 ovarian) was > 100 µM and the GI50 (OVCAR-4 ovarian) was 9.65 µM. For the same molecule, the TGI (OVCAR-4 ovarian) was > 31.1 µM, the GI50 (OVCAR-5 ovarian) was 0.362 µM and the TGI (OVCAR-5 ovarian) was > 100 µM. The GI50 (OVCAR-8 ovarian) was 1.22 µM, the TGI (OVCAR-8 ovarian) was 17.3 µM and the GI50 (PC-3 prostate) was > 100 µM. For the same molecule, the TGI (PC-3 prostate) was > 100 µM, the GI50 (RPMI-8226 leukemia) was 0.0377 µM and the TGI (RPMI-8226 leukemia) was 0.175 µM. The GI50 (RXF 393 renal) was 0.0372 µM, the TGI (RXF 393 renal) was 0.141 µM and the GI50 (SF-268 CNS) was 0.201 µM. The TGI (SF-268 CNS) was 1.98 µM, the GI50 (SF-295 CNS) was 5.17 µM and the TGI (SF-295 CNS) was > 23.1 µM. It also gave a GI50 (SF-539 CNS) of 0.224 µM, a TGI (SF-539 CNS) of 14.4 µM and a GI50 (SK-MEL-28 melanoma) of 30.8 µM. The TGI (SK-MEL-28 melanoma) was > 87.1 µM, the GI50 (SK-MEL-5 melanoma) was 0.891 µM and the TGI (SK-MEL-5 melanoma) was 17.2 µM. The GI50 (SK-OV-3 ovarian) was 0.0809 µM, the TGI (SK-OV-3 ovarian) was 25.2 µM and the GI50 (SN12C renal) was 0.0217 µM. For the same molecule, the GI50 (SNB-19 CNS) was 39.4 µM, the TGI (SNB-19 CNS) was 97.2 µM and the GI50 (SNB-75 CNS) was 18.5 µM. For the same molecule, the TGI (SNB-75 CNS) was 55.9 µM, the GI50 (SR leukemia) was 0.439 µM and the TGI (SR leukemia) was 18.7 µM. The GI50 (SW-620 colon) was > 100 µM, the TGI (SW-620 colon) was > 100 µM and the GI50 (T-47D breast) was 1.87 µM. The TGI (T-47D breast) was 9.66 µM, the GI50 (TK-10 renal) was 0.637 µM and the TGI (TK-10 renal) was 18.3 µM. For the same molecule, the GI50 (U251 glioblastoma) was 0.0338 µM, the TGI (U251 glioblastoma) was 11.8 µM and the GI50 (UACC-257 melanoma) was 14.4 µM. For the same molecule, the TGI (UACC-257 melanoma) was 48 µM, the GI50 (UACC-62 melanoma) was 4.76 µM and the TGI (UACC-62 melanoma) was > 33.5 µM. The GI50 (UO-31 renal) was 5.66 µM.

From PubChem BioAssay (NCI)
